What was measured:
Set-up in all cases: species or system athymic female NCR-Nu Mice
[1] = test system: MDA-MB-231 (ER-) breast tumor xenografts; test: In vivo biolocalization with gamma detecting probe, tumor/background ratio, MDA-MB-231 (ER-) tumor; settings: MDA-MB-231 tumor, foreleg background, n = 5
Protocol: (§1) In vivo biolocalization of 11β-ethyl-17α-(Z)-[^125 I](iodovinyl)estra-3,17β-diol (5) and a control compound 16α-[^125 I](iodovinyl)-3,17β-estradiol was determined in athymic female NCR-Nu Mice bearing subcutaneous MCF-7(ER+) breast tumor xenografts and MDA-MB-231 (ER-) breast tumor xenografts. The mice were at least 5 weeks old prior to injection into the right-hand flank with […] of MCF-7 breast carcinoma cells ([…]). One day prior to this procedure, the mice were implanted subcutaneously with a 1.7 mg estradiol pellet in the scapular region. Four to six weeks post-injection of the MCF-7 cells the estradiol pellet was removed and the mice inoculated in the left hind flank with 75 μL NDA-MB-231 breast tumor cells ([…]). Seven to ten days prior to injection of the test compounds, an estradiol pellet was again implanted in the scapular region. One to two days prior to injection of the test compounds, the estradiol pellet was removed, and 5 mice arbitrarily assigned to each test group.
(§2) The mice were each injected via tail vein with between 3 ([…]) and […] ([…]) 125 iodine in approximately […] of phosphate-buffered saline. At various time intervals after injection of the test compounds, each group of mice was anesthetized with methoxyflurane in order to measure the radioactivity over the ER+ and ER- tumors and the front leg for use as a background and the thoraxic area which served as a blood pool control using a gamma detecting probe (RIGS ^TM Model 1001 control unit, Neoprobe Corporation, Columbus, Ohio). Three 20 to 60 second counts were recorded at each area measured at each time point.
(§3) ^c Tu/Bkg = Mean(1-5) of (mean tumor countsn - mean foreleg
(§4) background countsn)/mean foreleg background

[2] = test system: MCF-7(ER+) breast tumor xenografts; test: In vivo biolocalization with gamma detecting probe, tumor/background ratio, MCF-7 (ER+) tumor; settings: for Tumor/Background Ratio (Tu/Bkg): MCF-7 tumor, foreleg background, n = 5
Protocol: as §1, §2, §3, §4

[3] = test system: MCF-7(ER+) breast tumor xenografts; test: In vivo localization (biodistribution) in athymic female nude mice bearing subcutaneous MCF-7 tumor xenografts; settings: for Percent Injected Dose/Gram, blood / Percent Injected Dose/Gram, fat / Percent Injected Dose/Gram, kidney / Percent Injected Dose/Gram, liver / Percent Injected Dose/Gram, muscle / Percent Injected Dose/Gram, spleen / Percent Injected Dose/Gram, tumor / Percent Injected Dose/Gram, uteri: tail vein, subcutaneous MCF-7, mean, n = 5
Protocol: (§5) In vivo localization of 11β-ethyl-17α-(Z)-[^125 I](iodovinyl)estra-3,17β-diol (5) and a control compound 16α-[^125 I]iodovinyl-3,17β-estradiol (commercially available from DuPont New England Nuclear, MA) was determined in athymic female NCR-Nu Mice (purchased from Simonsen Laboratories, Gilroy, Calif.) bearing subcutaneous MCF-7(ER+) breast tumor xenografts. Prior to injection of the compounds, the mice were each implanted with fragments of MCF-7 breast tumor (approximately 2 cubic millimeters) in the subcutis of the left flank. At approximately the same time, a 1.7 mg estradiol pellet (Innovative Research of America, Toledo, Ohio) was implanted in the scapular region. The tumors were allowed to grow until they reached between 50 and 200 mg by visual inspection (approximately four to five weeks) prior to injection of the test compounds. One day prior to injection of the test compounds, the estradiol pellet was removed.
(§6) The mice were each injected via tail vein with between 3 (1.1×10^5 Bq) and 6 μCi ([…]) ^125 I in approximately 50 μL of phosphate buffered saline. The mice were sacrificed at various time intervals. After exsanguination, the selected organ/tissue were excised, weighed and radioactivity measured in a gamma counter. The counts per minute (cpm) of 125I in each tissue was determined and expressed as cpm per gram of tissue per injected dose multiplied by 100 (percent injected dose/gram).

[4] = test system: MCF-7 tumors located intraperitoneally; test: In vivo localization (biodistribution) in athymic female nude mice bearing intraperitoneal MCF-7 tumors; settings: for Percent Injected Dose/Gram, blood / Percent Injected Dose/Gram, fat / Percent Injected Dose/Gram, kidney / Percent Injected Dose/Gram, liver / Percent Injected Dose/Gram, muscle / Percent Injected Dose/Gram, spleen / Percent Injected Dose/Gram, tumor / Percent Injected Dose/Gram, uteri: tail vein, intraperitoneal MCF-7, mean, n = 5
Protocol: as §5, §6
The procedure of Example 3 was followed except each mouse was inoculated intraperitoneally with MCF-7 breast carcinoma cell line (7.5×10^6 cell/50 μL) rather than implanted subcutaneously with MCF-7 breast tumor. One day prior to this procedure, a 1.7 mg estradiol pellet was implanted subcutaneously in the scapular region. The tumor cells were allowed to form solid tumor nodules for 4 to 6 weeks prior to injection of the test compounds.

C[C@]12CC[C@@H]3c4ccc(O)cc4CC[C@H]3[C@@H]1C[C@@H]([125I])[C@@H]2O [16α-Iodo-[^125 I]-3,17β-Estradiol]
Tumor/Background Ratio (Tu/Bkg) ([1]; 10-12 hours): 2.51 ± 1.40 | Tumor/Background Ratio (Tu/Bkg) ([1]; 2 hours): 10.96 | Tumor/Background Ratio (Tu/Bkg) ([1]; 6 hours): 6.23 ± 3.02 | Tumor/Background Ratio (Tu/Bkg) ([1]; 24 hours): 0.85 ± 0.29 | Tumor/Background Ratio (Tu/Bkg) ([1]; 48 hours): 0.08 ± 0.19 | Tumor/Background Ratio (Tu/Bkg) ([2]; 10-12 hours): 4.46 ± 1.44 | Tumor/Background Ratio (Tu/Bkg) ([2]; 2 hours): 12.73 | Tumor/Background Ratio (Tu/Bkg) ([2]; 6 hours): 9.58 ± 4.69 | Tumor/Background Ratio (Tu/Bkg) ([2]; 24 hours): 1.13 ± 0.16 | Tumor/Background Ratio (Tu/Bkg) ([2]; 48 hours): 0.13 ± 0.08 | tumor to background ratios / localization at the tumor site (in words) ([2]; after 10 to 12 hours): not being maintained or localized at the tumor site | tumor to background ratios (in words) ([2]; at 10 to 12 hours): good tumor to background ratios | radioactivity in the uteri and tumors ([3]; 48 hours post-injection, uteri and tumors, subcutaneous MCF-7): no radioactivity defected | Percent Injected Dose/Gram, blood ([3]; 10-12 hours): 0.16 Percent Injected Dose/Gram | Percent Injected Dose/Gram, blood ([3]; 2 hours): 0.59 Percent Injected Dose/Gram | Percent Injected Dose/Gram, blood ([3]; 6 hours): 0.58 Percent Injected Dose/Gram | Percent Injected Dose/Gram, blood ([3]; 24 hours): 0.03 Percent Injected Dose/Gram | Percent Injected Dose/Gram, blood ([3]; 48 hours): 0.01 Percent Injected Dose/Gram | Percent Injected Dose/Gram, fat ([3]; 10-12 hours): 0.00 Percent Injected Dose/Gram | Percent Injected Dose/Gram, fat ([3]; 2 hours): 0.88 Percent Injected Dose/Gram | Percent Injected Dose/Gram, fat ([3]; 6 hours): 0.25 Percent Injected Dose/Gram | Percent Injected Dose/Gram, fat ([3]; 24 hours): 0.00 Percent Injected Dose/Gram | Percent Injected Dose/Gram, fat ([3]; 48 hours): 0.00 Percent Injected Dose/Gram | Percent Injected Dose/Gram, kidney ([3]; 10-12 hours): 0.10 Percent Injected Dose/Gram | Percent Injected Dose/Gram, kidney ([3]; 2 hours): 0.64 Percent Injected Dose/Gram | Percent Injected Dose/Gram, kidney ([3]; 6 hours): 0.37 Percent Injected Dose/Gram | Percent Injected Dose/Gram, kidney ([3]; 24 hours): 0.00 Percent Injected Dose/Gram | Percent Injected Dose/Gram, kidney ([3]; 48 hours): 0.00 Percent Injected Dose/Gram | Percent Injected Dose/Gram, liver ([3]; 10-12 hours): 0.55 Percent Injected Dose/Gram | Percent Injected Dose/Gram, liver ([3]; 2 hours): 3.33 Percent Injected Dose/Gram | Percent Injected Dose/Gram, liver ([3]; 6 hours): 1.93 Percent Injected Dose/Gram | Percent Injected Dose/Gram, liver ([3]; 24 hours): 0.09 Percent Injected Dose/Gram | Percent Injected Dose/Gram, liver ([3]; 48 hours): 0.06 Percent Injected Dose/Gram | Percent Injected Dose/Gram, muscle ([3]; 10-12 hours): 0.00 Percent Injected Dose/Gram | Percent Injected Dose/Gram, muscle ([3]; 2 hours): 0.07 Percent Injected Dose/Gram | Percent Injected Dose/Gram, muscle ([3]; 6 hours): 0.05 Percent Injected Dose/Gram | Percent Injected Dose/Gram, muscle ([3]; 24 hours): 0.00 Percent Injected Dose/Gram | Percent Injected Dose/Gram, muscle ([3]; 48 hours): 0.00 Percent Injected Dose/Gram | Percent Injected Dose/Gram, spleen ([3]; 10-12 hours): 0.05 Percent Injected Dose/Gram | Percent Injected Dose/Gram, spleen ([3]; 2 hours): 0.28 Percent Injected Dose/Gram | Percent Injected Dose/Gram, spleen ([3]; 6 hours): 0.25 Percent Injected Dose/Gram | Percent Injected Dose/Gram, spleen ([3]; 24 hours): 0.00 Percent Injected Dose/Gram | Percent Injected Dose/Gram, spleen ([3]; 48 hours): 0.00 Percent Injected Dose/Gram | Percent Injected Dose/Gram, tumor ([3]; 10-12 hours): 0.09 Percent Injected Dose/Gram | Percent Injected Dose/Gram, tumor ([3]; 2 hours): 0.91 Percent Injected Dose/Gram | Percent Injected Dose/Gram, tumor ([3]; 6 hours): 0.41 Percent Injected Dose/Gram | Percent Injected Dose/Gram, tumor ([3]; 24 hours): 0.00 Percent Injected Dose/Gram | Percent Injected Dose/Gram, tumor ([3]; 48 hours): 0.00 Percent Injected Dose/Gram | Percent Injected Dose/Gram, uteri ([3]; 10-12 hours): 0.38 Percent Injected Dose/Gram | Percent Injected Dose/Gram, uteri ([3]; 2 hours): 2.81 Percent Injected Dose/Gram | Percent Injected Dose/Gram, uteri ([3]; 6 hours): 1.02 Percent Injected Dose/Gram | Percent Injected Dose/Gram, uteri ([3]; 24 hours): 0.02 Percent Injected Dose/Gram | Percent Injected Dose/Gram, uteri ([3]; 48 hours): 0.00 Percent Injected Dose/Gram | radioactivity in the uteri and tumors ([4]; 48 hours post-injection, uteri and tumors, intraperitoneal MCF-7): no radioactivity defected | Percent Injected Dose/Gram, blood ([4]; 10-12 hours): 0.50 Percent Injected Dose/Gram | Percent Injected Dose/Gram, blood ([4]; 2 hours): 0.84 Percent Injected Dose/Gram | Percent Injected Dose/Gram, blood ([4]; 6 hours): 0.74 Percent Injected Dose/Gram | Percent Injected Dose/Gram, blood ([4]; 24 hours): 0.06 Percent Injected Dose/Gram | Percent Injected Dose/Gram, blood ([4]; 48 hours): 0.03 Percent Injected Dose/Gram | Percent Injected Dose/Gram, fat ([4]; 10-12 hours): 0.01 Percent Injected Dose/Gram | Percent Injected Dose/Gram, fat ([4]; 2 hours): 0.92 Percent Injected Dose/Gram | Percent Injected Dose/Gram, fat ([4]; 6 hours): 0.14 Percent Injected Dose/Gram | Percent Injected Dose/Gram, fat ([4]; 24 hours): 0.00 Percent Injected Dose/Gram | Percent Injected Dose/Gram, fat ([4]; 48 hours): 0.00 Percent Injected Dose/Gram | Percent Injected Dose/Gram, kidney ([4]; 10-12 hours): 0.24 Percent Injected Dose/Gram | Percent Injected Dose/Gram, kidney ([4]; 2 hours): 0.83 Percent Injected Dose/Gram | Percent Injected Dose/Gram, kidney ([4]; 6 hours): 0.41 Percent Injected Dose/Gram | Percent Injected Dose/Gram, kidney ([4]; 24 hours): 0.03 Percent Injected Dose/Gram | Percent Injected Dose/Gram, kidney ([4]; 48 hours): 0.00 Percent Injected Dose/Gram | Percent Injected Dose/Gram, liver ([4]; 10-12 hours): 0.84 Percent Injected Dose/Gram | Percent Injected Dose/Gram, liver ([4]; 2 hours): 6.54 Percent Injected Dose/Gram | Percent Injected Dose/Gram, liver ([4]; 6 hours): 5.37 Percent Injected Dose/Gram | Percent Injected Dose/Gram, liver ([4]; 24 hours): 0.15 Percent Injected Dose/Gram | Percent Injected Dose/Gram, liver ([4]; 48 hours): 0.08 Percent Injected Dose/Gram | Percent Injected Dose/Gram, muscle ([4]; 10-12 hours): 0.00 Percent Injected Dose/Gram | Percent Injected Dose/Gram, muscle ([4]; 2 hours): 0.12 Percent Injected Dose/Gram | Percent Injected Dose/Gram, muscle ([4]; 6 hours): 0.07 Percent Injected Dose/Gram | Percent Injected Dose/Gram, muscle ([4]; 24 hours): 0.00 Percent Injected Dose/Gram | Percent Injected Dose/Gram, muscle ([4]; 48 hours): 0.00 Percent Injected Dose/Gram | Percent Injected Dose/Gram, spleen ([4]; 10-12 hours): 0.15 Percent Injected Dose/Gram | Percent Injected Dose/Gram, spleen ([4]; 2 hours): 0.34 Percent Injected Dose/Gram | Percent Injected Dose/Gram, spleen ([4]; 6 hours): 0.36 Percent Injected Dose/Gram | Percent Injected Dose/Gram, spleen ([4]; 24 hours): 0.01 Percent Injected Dose/Gram | Percent Injected Dose/Gram, spleen ([4]; 48 hours): 0.00 Percent Injected Dose/Gram | Percent Injected Dose/Gram, tumor ([4]; 10-12 hours): 0.40 Percent Injected Dose/Gram | Percent Injected Dose/Gram, tumor ([4]; 2 hours): 1.35 Percent Injected Dose/Gram | Percent Injected Dose/Gram, tumor ([4]; 6 hours): 0.75 Percent Injected Dose/Gram | Percent Injected Dose/Gram, tumor ([4]; 24 hours): 0.02 Percent Injected Dose/Gram | Percent Injected Dose/Gram, tumor ([4]; 48 hours): 0.00 Percent Injected Dose/Gram | Percent Injected Dose/Gram, uteri ([4]; 10-12 hours): 0.45 Percent Injected Dose/Gram | Percent Injected Dose/Gram, uteri ([4]; 2 hours): 2.89 Percent Injected Dose/Gram | Percent Injected Dose/Gram, uteri ([4]; 6 hours): 1.09 Percent Injected Dose/Gram | Percent Injected Dose/Gram, uteri ([4]; 24 hours): 0.02 Percent Injected Dose/Gram | Percent Injected Dose/Gram, uteri ([4]; 48 hours): 0.00 Percent Injected Dose/Gram
